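Cells were grown in 96-well plates and exposed to each compound for 48 hours at five concentrations; endpoints were interpolated linearly between bracketing concentrations, or set to the highest concentration if not reached. The concentration for 50% growth inhibition is given as GI50.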 Calls of active or inactive are those of the source. Rule as the data show it: active = GI50 up to about 1.1 µM and inactive = higher.
Columns and labels:
Experiment in all cases: DTP human tumour cell line panel, 48 h
[1] = system: SF-295
[2] = system: MDA-MB-435
[3] = system: SN12C
[4] = system: UACC-62
[5] = system: BT-549
[6] = system: LOX IMVI
[7] = system: T47D
[8] = system: K562
[9] = system: HCT-15
[10] = system: NCI/ADR-RES
[11] = system: NCI-H23
[12] = system: 786-0
[13] = system: Hs-578T
[14] = system: CAKI-1
[15] = system: OVCAR-8
[16] = system: SK-MEL-5
[17] = system: SF-268
[18] = system: KM12
[19] = system: CCRF-CEM

Measured: GI50

COc1ccc(-c2nc(N(C)C)c3ccccc3n2)cc1
12.1 µM: [9]
inactive: [1] 14.2 µM | [2] 15.3 µM | [3] 7.89 µM | [4] 12.7 µM | [5] 14.2 µM | [6] 11 µM | [7] 10.8 µM | [8] 13.9 µM | [10] 5.09 µM | [11] 16 µM | [12] 10.9 µM | [13] 13.5 µM | [14] 14 µM | [15] 11.3 µM | [16] 13.1 µM | [17] 15.9 µM | [18] 13.4 µM

CC1=NN(c2nc(N)nc(/C(C#N)=C/c3cccn3-c3cc(Cl)cc(Cl)c3)n2)C(C)(C)C1
inactive: [1] > 100 µM | [2] > 100 µM | [3] 35.2 µM | [4] > 100 µM | [5] > 100 µM | [6] 83 µM | [7] > 100 µM | [10] > 100 µM | [11] > 100 µM | [12] > 100 µM | [13] 32.9 µM | [14] > 100 µM | [15] 12 µM | [19] 4.47 µM | [16] > 100 µM | [17] 15.5 µM | [18] > 100 µM
> 100 µM: [9]

O=C1C(Cl)C2(CC(/C=C/c3ccccc3O)=NN2c2cccc(S(=O)(=O)O)c2)N1c1nc2ccccc2s1 (configuration not stated)
18.2 µM: [9]
inactive: [2] 15.1 µM | [3] 14.2 µM | [4] 15.2 µM | [5] 18.1 µM | [6] 9.62 µM | [7] 17.4 µM | [8] 20.2 µM | [10] 36.1 µM | [11] 15.6 µM | [12] 15.6 µM | [13] 23.9 µM | [15] 24.3 µM | [19] 7.24 µM | [16] 12.1 µM | [17] 16 µM | [18] 14.8 µM

Cc1cccc(C(C)C)c1NC(=O)C(=O)CC(=O)c1sc(Nc2ccccc2Cl)nc1C
30.9 µM: [9]
inactive: [1] 12.9 µM | [2] 7.26 µM | [3] 64.9 µM | [4] 42.4 µM | [5] 32.7 µM | [6] 31.8 µM | [7] 35.8 µM | [8] > 10 µM | [11] 35 µM | [12] 32.8 µM | [13] 21.9 µM | [14] 85.3 µM | [19] 30.3 µM | [16] 13.5 µM | [17] 58.2 µM | [18] 23.1 µM

CNc1ccccc1S(=O)(=O)c1ccccc1[N+](=O)[O-]
inactive: [1] 80.2 µM | [2] 38.2 µM | [3] 92.7 µM | [4] 48.8 µM | [5] 23.6 µM | [6] 53 µM | [7] 71.1 µM | [8] 42.6 µM | [10] 45.5 µM | [11] 44.6 µM | [12] > 100 µM | [13] 40.2 µM | [15] > 10 µM | [19] 43.5 µM | [16] 23 µM | [17] > 100 µM | [18] > 100 µM
46.3 µM: [9]

O=CN(O)CC(=O)O
> 100 µM: [9]
inactive: [1] > 100 µM | [2] > 100 µM | [3] > 100 µM | [4] > 100 µM | [5] > 100 µM | [6] > 100 µM | [7] > 100 µM | [8] > 100 µM | [10] > 100 µM | [11] > 100 µM | [12] > 100 µM | [13] > 100 µM | [15] > 100 µM | [19] > 100 µM | [16] > 100 µM | [17] > 100 µM | [18] > 100 µM

Cc1nc2ccc(S(=O)(=O)O)cc2c(=O)n1-c1ccc(C(=O)NN2C(=O)C(Cl)C2c2ccccc2O)cc1 (configuration not stated)
> 100 µM: [9]
inactive: [1] > 100 µM | [2] > 100 µM | [3] > 100 µM | [5] > 100 µM | [6] > 100 µM | [7] > 100 µM | [8] > 100 µM | [10] > 100 µM | [11] > 100 µM | [12] > 100 µM | [13] > 100 µM | [14] > 100 µM | [15] > 100 µM | [19] > 100 µM | [16] > 100 µM | [17] > 100 µM | [18] > 100 µM

CN(C)Cc1cc(C(=O)/C=C/c2ccccc2)cc(CN(C)C)c1O
30.3 µM: [9]
inactive: [1] 15.5 µM | [2] 31.6 µM | [3] 11.7 µM | [5] 19.9 µM | [6] 5.14 µM | [7] 30.8 µM | [8] 14.2 µM | [10] 26.5 µM | [11] 28.1 µM | [12] 30.1 µM | [13] 36.1 µM | [14] 36.1 µM | [15] 27 µM | [19] 19.4 µM | [16] 16.6 µM | [17] 32.5 µM | [18] 18.6 µM
